Experiments:
Experiment in all cases: relative viability (nuclei count vs DMSO), 5 days (fraction); higher = more cells survive
[1] = compound: C1=CC2=NC=CN=C2C=C1/C=C/3\C(=O)NC(=O)S3 + Cc1nc(NC(=O)N2CCC[C@H]2C(N)=O)sc1-c1ccnc(C(C)(C)C(F)(F)F)c1 [Alpelisib] (partner 2 µM)
Summary of the method: (§1)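 Medians of duplicate plates are given as relative viability. That measure is the nuclei count in treated wells divided by the count in vehicle wells. Counts were taken on 4× images of lung cancer cell lines in 1536-well plates, 5 days after pin-tool dosing the day after seeding with one drug alone or a fixed anchor-drug dose plus five library-drug doses (not always all listed) in √10 steps.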

[2] = compound: C1=CC2=NC=CN=C2C=C1/C=C/3\C(=O)NC(=O)S3 + N=C(N)NC(=N)NCCc1ccccc1 [Phenformin] (partner 250 µM)
Summary of the method: as §1

[3] = compound: C1=CC2=NC=CN=C2C=C1/C=C/3\C(=O)NC(=O)S3 + CC(=O)Nc1cccc(-n2c(=O)n(C3CC3)c(=O)c3c(Nc4ccc(I)cc4F)n(C)c(=O)c(C)c32)c1 [Trametinib] (partner 0.02 µM)
Summary of the method: as §1

[4] = compound: CCN1CCN(c2ccc(Nc3cc(N(C)C(=O)Nc4c(Cl)c(OC)cc(OC)c4Cl)ncn3)cc2)CC1 [BGJ398] + O=C(CCCCCCC(=O)Nc1ccccc1)NO [Vorinostat] (partner 1 µM)
Summary of the method: as §1

Cell Line	relative viability ([1]; first compound 0.02 µM)	relative viability ([1]; first compound 0.06325 µM)	relative viability ([1]; first compound 0.2 µM)	relative viability ([1]; first compound 0.6325 µM)	relative viability ([1]; first compound 2 µM)	relative viability ([2]; first compound 0.02 µM)	relative viability ([2]; first compound 0.06325 µM)	relative viability ([2]; first compound 0.2 µM)	relative viability ([2]; first compound 0.6325 µM)	relative viability ([2]; first compound 2 µM)	relative viability ([3]; first compound 0.02 µM)	relative viability ([3]; first compound 0.06325 µM)	relative viability ([3]; first compound 0.2 µM)	relative viability ([3]; first compound 0.6325 µM)	relative viability ([3]; first compound 2 µM)	relative viability ([4]; first compound 0.01 µM)	relative viability ([4]; first compound 0.03162 µM)	relative viability ([4]; first compound 0.1 µM)	relative viability ([4]; first compound 0.3162 µM)	relative viability ([4]; first compound 1 µM)
201T	0.955	1.05	1.01	0.978	0.877	0.448	0.49	0.452	0.495	0.323	0.669	0.726	0.718	0.736	0.713	1.2	0.947	0.949	0.929	0.885
A549	0.847	1.1	0.67	0.729	0.557	0.175	0.137	0.156	0.2	0.152	–	–	–	–	–	–	–	–	–	–
A-427	1.06	1.08	1.1	1.07	1.12	0.291	0.247	0.374	0.332	0.261	0.777	0.773	0.725	0.75	0.596	0.909	0.953	0.895	0.698	0.713
ABC-1	1	1.14	0.933	1.01	1.02	0.265	0.316	0.215	0.231	0.259	–	–	–	–	–	1.61	0.855	1.04	–	0.937
BEN	1.07	0.877	1.22	0.911	1.09	0.253	0.3	0.247	0.275	0.272	1.06	0.885	0.986	1.05	0.856	0.533	0.557	0.594	0.553	0.544
CAL-12T	1.3	1.11	1.11	1.3	1.15	0.577	0.479	0.562	0.517	0.546	0.398	0.301	0.426	0.309	0.271	0.666	1.08	0.703	0.895	0.941
COR-L23	0.736	0.896	0.83	0.72	0.696	0.459	0.455	0.46	0.43	0.425	0.557	0.596	0.617	0.567	0.422	0.443	0.52	0.445	0.485	0.484
COR-L 105	1.22	0.861	0.901	1.02	0.751	0.46	0.43	0.494	0.5	0.413	0.422	0.549	0.451	0.408	0.423	0.656	0.727	0.879	0.828	0.931
Calu-6	1.02	1.11	1.04	0.902	0.845	–	–	–	–	–	–	–	–	–	–	–	–	–	–	–
ChaGo-K-1	–	–	–	–	–	0.45	0.466	0.516	0.35	0.369	0.9	0.785	0.888	0.887	0.872	0.67	0.775	0.706	0.802	0.794
EBC-1	0.819	1.05	0.788	0.849	0.854	–	–	–	–	–	–	–	–	–	–	–	–	–	–	–
EKVX	0.834	0.78	0.869	0.784	0.771	0.216	0.22	0.239	0.223	0.225	0.301	0.392	0.32	0.322	0.33	0.701	–	0.921	0.691	0.728
EMC-BAC-2	0.707	0.784	0.756	0.709	0.75	0.499	0.532	0.55	0.518	0.396	0.92	0.944	0.892	0.879	0.713	0.707	0.591	0.316	0.366	0.413
EPLC-272H	1.05	1.05	1.01	0.833	0.939	0.259	0.302	0.371	0.26	0.297	0.253	0.261	0.273	0.296	0.293	0.531	0.395	0.261	0.5	0.578
H3255	0.734	0.903	0.661	0.907	0.717	0.368	0.348	0.358	0.358	0.3	0.607	0.698	0.643	0.6	0.699	0.793	–	0.77	–	0.795
HARA	0.749	0.696	0.844	0.806	0.859	0.451	0.384	0.395	0.428	0.422	0.477	0.632	0.507	0.788	0.672	0.63	0.51	0.669	0.598	0.593
HCC-15	0.813	0.923	0.884	0.849	0.839	0.497	0.471	0.488	0.457	0.336	0.41	0.393	0.397	0.353	0.263	0.809	0.795	0.779	0.824	0.759
HCC-44	0.693	0.893	0.852	0.764	0.745	0.314	0.212	0.202	0.153	0.122	0.961	1	1.05	1.12	1	1.12	1.14	1.14	1.1	1.09
HCC-78	0.287	0.304	0.378	0.335	0.294	0.597	0.592	0.698	0.698	0.368	0.772	0.643	0.677	0.794	0.532	0.427	0.417	0.518	0.481	0.577
HCC-366	0.391	0.488	0.432	0.361	0.259	0.609	–	0.632	0.612	0.575	0.307	–	0.39	0.311	0.309	0.337	0.385	0.371	0.391	0.255

Cell Line	relative viability ([1]; first compound 0.02 µM)	relative viability ([1]; first compound 0.06325 µM)	relative viability ([1]; first compound 0.2 µM)	relative viability ([1]; first compound 0.6325 µM)	relative viability ([1]; first compound 2 µM)	relative viability ([2]; first compound 0.02 µM)	relative viability ([2]; first compound 0.06325 µM)	relative viability ([2]; first compound 0.2 µM)	relative viability ([2]; first compound 0.6325 µM)	relative viability ([2]; first compound 2 µM)	relative viability ([3]; first compound 0.02 µM)	relative viability ([3]; first compound 0.06325 µM)	relative viability ([3]; first compound 0.2 µM)	relative viability ([3]; first compound 0.6325 µM)	relative viability ([3]; first compound 2 µM)	relative viability ([4]; first compound 0.01 µM)	relative viability ([4]; first compound 0.03162 µM)	relative viability ([4]; first compound 0.1 µM)	relative viability ([4]; first compound 0.3162 µM)	relative viability ([4]; first compound 1 µM)
HCC-827	1.05	0.947	1.04	0.925	0.911	0.481	0.372	0.41	0.427	0.455	0.611	0.35	0.505	0.456	0.544	0.763	–	0.87	0.358	0.81
HOP-62	0.898	1.02	1.11	1.09	1.05	0.549	0.643	0.695	0.646	0.622	0.355	0.366	0.419	0.369	0.38	0.694	0.618	0.626	0.575	0.602
IA-LM	0.586	0.713	0.64	0.749	0.764	–	–	–	–	–	–	–	–	–	–	0.797	0.806	1.09	0.972	0.894
LC-2-ad	0.785	0.975	0.832	0.812	0.686	0.61	0.601	0.655	0.578	0.417	0.884	0.991	0.931	0.972	0.83	0.708	0.76	0.742	0.687	0.703
LCLC-97TM1	0.234	0.267	0.294	0.268	0.178	0.389	0.374	0.423	0.432	0.162	0.197	0.193	0.222	0.232	0.167	0.533	0.691	0.743	0.781	0.753
LCLC-103H	0.876	0.906	1.01	1.03	0.925	0.325	0.322	0.351	0.354	0.25	0.676	0.701	0.634	0.665	0.666	0.769	0.784	0.68	0.697	0.602
LK-2	1.17	1.1	1.08	0.984	0.946	0.615	0.603	0.488	0.368	0.195	0.769	0.813	0.847	0.828	0.567	0.296	0.334	0.247	0.225	0.207
LOU-NH91	0.721	0.762	0.676	0.738	0.728	0.712	0.72	0.569	0.703	0.564	0.791	0.808	0.799	0.792	0.726	0.896	0.896	0.957	0.748	0.883
LU99A	0.575	0.562	0.607	0.501	0.393	0.799	0.814	0.862	0.926	0.625	0.564	0.47	0.607	0.587	0.427	0.472	0.437	0.542	0.451	0.486
LXF-289	0.999	1.01	1.06	0.984	1.07	0.491	0.501	0.535	0.526	0.478	0.671	0.655	0.649	0.662	0.688	0.746	0.666	0.769	0.608	0.73
NCI-H522	–	–	–	–	–	0.65	0.608	0.666	0.564	0.579	0.75	0.781	0.806	0.771	0.659	0.926	0.802	0.935	1.01	0.888
NCI-H1299	1.07	1.1	1.05	1.02	0.993	–	–	–	–	–	–	–	–	–	–	–	–	–	–	–
NCI-H1563	0.962	0.941	0.964	0.941	1.01	0.667	0.674	0.657	0.648	0.663	–	–	–	–	–	–	–	–	–	–
NCI-H1623	–	–	–	–	–	0.553	0.675	0.622	0.608	0.494	–	–	–	–	–	–	–	–	–	–
NCI-H1648	–	–	–	–	–	–	–	–	–	–	0.434	0.401	0.496	–	0.487	1.6	–	0.363	0.46	0.369
NCI-H1650	–	–	–	–	–	0.442	0.392	0.503	0.432	0.385	0.541	0.595	0.686	0.559	0.63	0.476	0.493	0.537	0.422	0.448
NCI-H1703	0.362	0.306	0.296	0.386	0.267	–	–	–	–	–	–	–	–	–	–	–	–	–	–	–
NCI-H1792	0.62	0.501	0.644	0.658	0.657	0.351	0.177	0.465	0.341	0.113	0.363	–	0.542	0.386	0.248	–	–	–	–	–
NCI-H2342	–	–	–	–	–	0.486	0.577	0.739	0.565	0.526	0.698	0.865	0.821	0.801	0.792	0.845	0.703	0.959	0.711	0.801
SW 900	–	–	–	–	–	0.675	0.601	0.702	0.4	0.551	0.554	0.853	0.742	–	0.776	0.534	0.425	0.562	0.261	0.24
